What all share (assay): growth of human tumour cells (NCI), 48 h
Assay [1] concerns EKVX NSCLC.
Assay [2] has as its system HOP-62 NSCLC.
In assay [3] the test system is K-562 leukemia.
Assay [4] has as its system KM12 colon.
The test system of assay [5] is RPMI-8226 leukemia.
Assay [6] deals with SK-OV-3 ovarian.
Assay [7] has as its system SN12C renal.
Assay [8] has as its system TK-10 renal.
Assay [9] relates to UACC-62 melanoma.
Assay [10] relates to HT29 colon.

Where “and” joins values, the source holds several entries; their conditions need not be identical. Identical values can stand only once.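 Five compound concentrations were applied to cells in 96-well plates for 48 hours; endpoints were derived by simple linear interpolation of the resulting dose-response curve. Abbreviation: GI50, concentration required for 50% inhibition of growth. TGI denotes the concentration required for complete inhibition of growth.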

Take `Cc1ccc(-n2c3c(c4c(CN5CCCCC5)c(O)ccc42)CCc2ccccc2C3=O)cc1`: the GI50 is greater than 100 µM in [1]; 27.5 µM in assay [2]; 32.2 µM in [3]; greater than 100 µM in assay [4]; greater than 100 µM in assay [5]; greater than 100 µM in [6]. The GI50 in assay [7] was greater than 100 µM; in assay [8], greater than 100 µM; in assay [9], 97.4 µM. The TGI in [1] was greater than 100 µM; in assay [2] it was 80.7 µM; in [3], greater than 100 µM; in assay [4], greater than 100 µM; in assay [5] it was greater than 100 µM; in assay [6], greater than 100 µM. Further, the TGI in assay [7], in assay [8] and in [9] was greater than 100 µM throughout.
In the case of `Oc1nc(NCCc2ccccc2)sc1/C=C1\C=Nc2ncccc21`, the GI50 in [1] is 3.18 µM and 3.52 µM; in assay [2] it was 2.47 µM and 3.43 µM; in [10], 2.8 µM and 4 µM; in [3], 4.12 µM and 4.7 µM; in [4], 2.69 µM and 2.71 µM; in [5] it was 3.21 µM and 2.99 µM. The GI50 in assay [6] is 2.08 µM and 2.77 µM; in [7], 2.63 µM and 3.92 µM; in [8], 3.59 µM and 3.04 µM; in assay [9], 2.38 µM and 2.93 µM. For the same compound, the TGI is 29.6 µM and 26.9 µM in [1]; 7.86 µM and 9.47 µM in assay [2]; 11.4 µM and 26.7 µM in [10]; 20 µM and 79.6 µM in assay [3]; 9.91 µM and 13 µM in assay [4]; 12.5 µM and 16.1 µM in [5]. In addition, the TGI was 15.2 µM and 9.07 µM in assay [6]; 12.9 µM and 74.1 µM in assay [7]; 15.5 µM and 17.7 µM in assay [8]; 8.56 µM and 8.7 µM in assay [9].
As to `O=C(c1cc(=O)c2ccc(O)cc2o1)c1ccc(Cl)cc1Cl`, the TGI is 99.3 µM in assay [1]; greater than 100 µM in [2]; greater than 100 µM in assay [10]; greater than 35.5 µM in assay [3]; greater than 100 µM in [4]; greater than 72.7 µM in assay [5]. Moreover, the TGI in [6] was greater than 100 µM; in [7], 72.1 µM; in assay [8], greater than 100 µM; in assay [9], greater than 100 µM.
Take `c1cncc(CNc2ccccc2-c2nnc(Nc3ccc4c(c3)OCO4)o2)c1`: the GI50 in assay [1] is 0.328 µM; in assay [2], 0.085 µM; in assay [10], 0.037 µM; in assay [3], 0.0474 µM; in assay [4] it was 0.0505 µM; in [5] it was 0.16 µM. The GI50 was 0.0914 µM in [6], 0.0994 µM in [7], 1.18 µM in [8] and 0.0542 µM in assay [9]. Besides, the TGI was greater than 100 µM in assay [1]; greater than 81 µM in [2]; 1.27 µM in [10]; greater than 100 µM in assay [3]; greater than 100 µM in assay [4]; greater than 100 µM in [5]. Further, the TGI in assay [6] was 7.81 µM; in assay [7] it was greater than 100 µM; in assay [8], greater than 46.8 µM; in [9] it was greater than 100 µM.
For the compound `O=C(NCCCN1CCN(CCCNC(=O)c2cnc3ccccc3n2)CC1)c1cnc2ccccc2n1`, the TGI in assay [1], in assay [2], in [10], in [3], in assay [4] and in assay [5] was greater than 100 µM each time. The TGI in assay [6], in assay [7] and in assay [9] was greater than 100 µM throughout.
With `COc1ccc(/C=C/c2cc(OC)c(O[Si](C)(C)C(C)(C)C)c(OC)c2)cc1`, the TGI in assay [1], in assay [2], in assay [10], in assay [3], in [4] and in assay [5] was greater than 100 µM throughout. Besides, the TGI in [6], in [7] and in assay [9] was greater than 100 µM in each case.
Take `Cn1cc(-c2csc(-c3c[nH]c4ncccc34)n2)c2cc(Br)cnc21`: the GI50 in assay [1] was 1.27 µM; in assay [2] it was 2.39 µM; in assay [10], 6.75 µM; in [3], 8.76 µM; in [4] it was 5.7 µM; in assay [5], greater than 100 µM. The GI50 is 3.25 µM in assay [6], 3.77 µM in assay [8] and 3.47 µM in assay [9]. Also, the TGI was greater than 100 µM in [1]; 11.6 µM in assay [2]; greater than 100 µM in assay [10]; greater than 100 µM in assay [3]; greater than 100 µM in [4]; greater than 100 µM in assay [5]. Besides, the TGI in [6], in [8] and in [9] was greater than 100 µM each time.
Regarding `COC(=O)[C@]12CC[C@@H](C)[C@H](C)[C@@H]1C1=CC[C@@H]3[C@@]4(C)C[C@@H](OC(=O)c5ccco5)[C@H](O)[C@@](C)(CO)[C@@H]4[C@H](O)C[C@@]3(C)[C@]1(C)CC2`, the GI50 in [1] is 2.78 µM; in assay [2], 2.03 µM; in assay [10], 1.8 µM; in assay [3], 2.35 µM; in [4], 2.62 µM; in [5], 2.55 µM. Moreover, the GI50 in [6] was 3.95 µM; in assay [8], 2.49 µM. Also, the TGI in assay [1] came out at 8.67 µM; in [2], 4 µM; in [10], 3.41 µM; in [3], 5.42 µM; in assay [4], 6.77 µM; in assay [5], 7.56 µM. In addition, the TGI in assay [6] is 11.9 µM; in assay [8] it was 7.85 µM.
Turning to `Cc1ccc(/C=C(\C#N)n2nnc3cc(Cl)c(Cl)cc32)cc1`, the GI50 was 3.48 µM in assay [1]; 2.6 µM in assay [2]; 2.59 µM in [10]; 0.892 µM in assay [3]; 3.03 µM in [4]; 1.7 µM in assay [5]. The GI50 in [6] was 3.69 µM; in [7] it was 3.13 µM; in assay [8], 4.4 µM. Besides, the TGI in [1] was greater than 100 µM; in assay [2], greater than 100 µM; in assay [10], 13.6 µM; in [3] it was 33.2 µM; in assay [4], greater than 100 µM; in assay [5], 4.91 µM. For the same compound, the TGI turned out to be 91.5 µM in [6], 13.1 µM in assay [7] and 36.4 µM in assay [8].

The values are drawn from PubChem BioAssay (NCI).
